From paper PMC5362409, “Antivascular and antitumor properties of the tubulin-binding chalcone TUB091” (Oncotarget, 2016) come the findings set out here.

Structures are written as SMILES. pKd: −log10 of the molar value.

The experiment has as its target T1, αβ-tubulin (β-tubulin, colchicine site) (Bos taurus, UniProt P81947+Q6B856).
T1 construct: gene TUBB2B; calf brain tubulin; with α-tubulin
In words: fluorescence competition: displacement of TUB091 fluorescence by TUB092, giving Ka ([…] GTP). The format is binding. The conditions noted are these: read-out: fluorescence competition: displacement of TUB091 fluorescence by TUB092, giving.

For the compound `COc1ccc(/C=C(\C)C(=O)c2cc(OC)c3c(c2)OCO3)cc1N` [compound 11, (E)-3-(3’’-amino-4’’-methoxyphenyl)-1-(5’-methoxy-3’,4’-methylendioxyphenyl)-2-methylprop-2-en-1-one], the pKd is 7.04.
